The values below come from US4397858A, “Treatment of rheumatism and arteriosclerosis with n-halogenophenyl-benzisothiazoles” (A. Nattermann & Cie GmbH, priority 1980, dated 1983).

As a reminder, the mortality is the percentage killed.

SMILES strings stand for the structures.

A short description of series [1]: Toxicity, mice, oral (lethality). To be noted: mouse, in vivo.
Another series has as its system Wistar rats. The experiment in a line: Adjuvant arthritis (C. M. PEARSON), Freund's adjuvant. The format is in vivo, Wistar rat. Particulars: rat. The method, then: 3. Adjuvant arthritis (C. M. PEARSON, proc.Soc.exp.Biol. 91, 95-101 (1956)
10 Wistar rats weighing from 120 g to 150 g are used per dose. The same number of animals is used for control purposes. An arthritis is induced by the administration of 0.5 ml of Freund's adjuvant by subplantar injection. The test lasts 17 days. At the beginning of the test, the paw volume of all four extremities is determined and used as the starting value. […] For evaluation purposes, the difference between the starting volume and final volume of the paws both of the test group and of the control group is calculated and inhibition expressed as a percentage.

Series [2] relates to rats. The experiment in a line: Granuloma test (Cotton pellet test) according to R. MEIER. The format is in vivo. Particulars: rat. The text has this:
Granuloma test (Cotton pellet test) according to R. MEIER et al. Experientia 6, 469 (1950)
In this test, cottonwool pellets impregnated with croton oil were implanted subcutaneously in the test animals (rats) to induce the formation of granulomas in the connective tissue. After the animals had been killed, the granulomas were excised and weighed moist or dry. The anti-proliferative effect of an antiphlogistic is reflected in light weights of the granulomas by comparison with untreated controls.

Series [3] deals with rats. Kind of series: Rat paw oedema test (HILLEBRECHT), carragenin. The format is in vivo. To be noted: 3 hours, relative to control group. The method, then: Determination of antiphlogistic activity by HILLEBRECHT's rat paw oedema test (J. HILLEBRECHT, Arzeim. Forsch. 1954, Vol. 4, page 607). An oedema was produced in one of the rear paws of rats weighing from 120 g to 150 g by the subplantar injection of carragenin (0.5% in a 0.9% NaCl-solution) in a quantity of 0.1 ml of solution per paw. After administration of the test substance, which generally should not exceed a volume of 10 ml per kg of body weight, the volume of the paw is determined in an overflow. After 3 hours, the final value is determined. For each dose, the test is carried out with 10 test animals and 10 control animals of one sex and repeated with the same number of animals of the other sex. For the purposes of evaluation, inhibition of the oedema is expressed as a percentage on relation to the control group.

Series [4] concerns stomach mucosa of Wistar rats. The experiment in a line: Ulcer test (ulcer-inducing effect in rats). The series is classed as in vivo, Wistar rat. To be noted: rat. The procedure: J. Toxicol. […] A bleeding stomach ulcer is induced by oral administration of the active principle. After 3.5 hours, the animals are killed, their stomachs removed, cut open along the major curvature and stretched across a Styropor plate. The frequency and extent of average ulcer formation in the test and control groups is determined.

The mark [5] stands for this setting: 1 mg/kg p.o. (1.0 for Indometacin), 7th day p.i.
[6] abbreviates: 1 mg/kg p.o. (1.0 for Indometacin), 14th day p.i.
[7] abbreviates: 1 mg/kg p.o. (1.0 for Indometacin), 17th day p.i.
Setting [8] is: 1.0 mg/kg p.o. (printed 1 for Indometacin).

The compound `O=c1c2ccccc2sn1-c1ccc(Cl)cc1` [2-(4-chlorophenyl)-1,2-benzisothiazol-3(2H)-one] displayed a mortality in series [1] (3 160 mg/kg p.o.) of 0%. The “Inhibition (adjuvant arthritis, paw volume)” value in the series with Wistar rats (setting [5]) is recorded as -27%; with Wistar rats (setting [6]), -44%; with Wistar rats (setting [7]), -45%; in the series on Wistar rats (3.2 mg/kg p.o., 7th day p.i.) it was -46%; in the series with Wistar rats (3.2 mg/kg p.o., 14th day p.i.), -51%; with Wistar rats (3.2 mg/kg p.o., 17th day p.i.) it was -56%. In addition, the “Reduction in weight of the granulomas” value is recorded as -26% with rats [2] (0.1 mg/kg p.o.), -43% in the series with rats [2] (setting [8]) and -44% in the series with rats [2] (10 mg/kg p.o.). In addition, the results for the Oedema inhibition in the series with rats [3] (0.01 mg/kg p.o.), in the series with rats [3] (0.1 mg/kg p.o.) and in the series on rats [3] (1.0 mg/kg p.o.) were -13%, -22% and -36%, respectively. Also, the Ulcer-inducing effect in series [4] (1 mg/kg p.o., 3.5 hours) is listed as 0; in series [4] (10 mg/kg p.o., 3.5 hours) it was 0; in series [4] (100 mg/kg p.o., 3.5 hours), 0.

The compound `COc1ccc2c(c1)c(CC(=O)O)c(C)n2C(=O)c1ccc(Cl)cc1` [Indometacin, 1-(p-chlorobenzoyl)-5-methoxy-2-methyl-3-indole acetic acid, reference compound] yielded a mortality in series [1] (38 mg/kg p.o.) of 50%. The “Inhibition (adjuvant arthritis, paw volume)” value is -20% in the series on Wistar rats (0.32 mg/kg p.o., 7th day p.i.); -26% in the series with Wistar rats (0.32 mg/kg p.o., 14th day p.i.); -33% in the series on Wistar rats (0.32 mg/kg p.o., 17th day p.i.); -50% with Wistar rats (setting [5]); -40% in the series with Wistar rats (setting [6]); -40% in the series with Wistar rats (setting [7]). For the same compound, the “Reduction in weight of the granulomas” value is on record as -21% with rats [2] (setting [8]), -7% in the series with rats [2] (3.2 mg/kg p.o.) and -6% in the series with rats [2] (5.6 mg/kg p.o.). Also, the Oedema inhibition in the series with rats [3] (3.8 mg/kg p.o.) is -26%; in the series on rats [3] (5.6 mg/kg p.o.), -45%. Moreover, the Ulcer-inducing effect result in series [4] (in vivo, po, 3.2 mg/kg) is on record as “++”; in series [4] (in vivo, po, 5.6 mg/kg), “+++”; in series [4] (in vivo, po, 7.5 mg/kg), “+++”.
